In brackets after ≈: the same amount, converted by molar mass.
What was measured:
Rattus norvegicus [1] = experiment: Antiinflammatory activity against complete Freund's adjuvant-induced thermal hyperalgesia in po dosed rat; format: functional
[2] = biological target: T1, Transient receptor potential cation channel subfamily V member 1 (Homo sapiens, UniProt Q8NER1); experiment: Antagonist activity at human TRPV1; format: functional
[3] = Ratio of drug level in brain to plasma in rat at 10 µmol/kg, po; details: read-out: BPR
[4] = biological target: T1, Transient receptor potential cation channel subfamily V member 1; experiment: Antagonist activity at human TRPV1 expressed in HEK293 cells assessed as inhibition of capsaicin-induced effect by capsaicin
[5] = Half life in rat at 10 µmol/kg, po; details: in vivo
Rattus norvegicus [6] = experiment: Toxicity in rat assessed as increase of body temperature at 100 umol/kg, po after 1 hr; format: organism-based; details: in vivo
Rattus norvegicus [7] = experiment: Antiinflammatory activity in rat post operative pain model assessed as reduction in pain in rat at 100 umol/kg, po single dose; set-up: scale not given: the % may be the effect or the level left
[8] = Cmax in rat at 10 µmol/kg, po; details: in vivo
Rattus norvegicus [9] = experiment: Antiinflammatory activity in rat osteoarthritis model assessed as reduction of pain in rat at 10 umol/kg, po bid measured after 12 days; format: functional; set-up: scale not given: the % may be the effect or the level left
[10] = biological target: Transient receptor potential cation channel subfamily V member 1 (Rattus norvegicus, UniProt O35433); experiment: Antagonist activity at rat TRPV1 assessed as inhibition of capsaicin-induced effect; format: functional
Rattus norvegicus [11] = experiment: Volume of distribution at steady state in rat at 10 µmol/kg, po; details: in vivo
Rattus norvegicus [12] = experiment: Antiinflammatory activity against carrageenan-induced thermal hyperalgesia in po dosed rat; format: functional
[13] = biological target: T1, Transient receptor potential cation channel subfamily V member 1; experiment: Antagonist activity at human TRPV1 expressed in HEK293 cells assessed as inhibition of N-arachidonoyl-dopamine-induced effect; format: functional, cell-based
[14] = Aqueous solubility of the compound; format: physicochemical
[15] = Solubility in lipid; format: physicochemical
Rattus norvegicus [16] = experiment: Antiinflammatory activity in rat osteoarthritis model assessed as reduction of pain in rat at 10 umol/kg, po single dose; set-up: scale not given: the % may be the effect or the level left
[17] = Oral bioavailability in rat at 10 µmol/kg; details: in vivo
Rattus norvegicus [18] = experiment: Plasma clearance in rat at 10 µmol/kg, po; details: in vivo
Rattus norvegicus [19] = experiment: Antiinflammatory activity in rat osteoarthritis model assessed as inhibition of thermal hyperalgesia in po dosed rat; format: functional
CYP3A4 = CYP3A4 (Homo sapiens, UniProt P08684); experiment: Inhibition of CYP3A4 assessed as midazolam oxidation at 10 uM; format: ADME; details: probe midazolam
[20] = Genotoxicity in Salmonella Typhimurium by Ames test; format: toxicity; details: salmonella enterica subsp. enterica serovar typhimurium
[21] = Solubility in PEG-400; format: physicochemical
Cytochrome P450 3A4 = Cytochrome P450 3A4 (Homo sapiens, UniProt P08684); experiment: Inhibition of CYP3A4; format: ADME; details: TDE = time-dependent effect
[22] = Plasma clearance in iv dosed rat; format: ADME, organism-based
[23] = Terminal phase volume of distribution at steady state in iv dosed rat; format: ADME, organism-based; details: in vivo, read-out: Vbeta

T1 sequence (Q8NER1 whole entry): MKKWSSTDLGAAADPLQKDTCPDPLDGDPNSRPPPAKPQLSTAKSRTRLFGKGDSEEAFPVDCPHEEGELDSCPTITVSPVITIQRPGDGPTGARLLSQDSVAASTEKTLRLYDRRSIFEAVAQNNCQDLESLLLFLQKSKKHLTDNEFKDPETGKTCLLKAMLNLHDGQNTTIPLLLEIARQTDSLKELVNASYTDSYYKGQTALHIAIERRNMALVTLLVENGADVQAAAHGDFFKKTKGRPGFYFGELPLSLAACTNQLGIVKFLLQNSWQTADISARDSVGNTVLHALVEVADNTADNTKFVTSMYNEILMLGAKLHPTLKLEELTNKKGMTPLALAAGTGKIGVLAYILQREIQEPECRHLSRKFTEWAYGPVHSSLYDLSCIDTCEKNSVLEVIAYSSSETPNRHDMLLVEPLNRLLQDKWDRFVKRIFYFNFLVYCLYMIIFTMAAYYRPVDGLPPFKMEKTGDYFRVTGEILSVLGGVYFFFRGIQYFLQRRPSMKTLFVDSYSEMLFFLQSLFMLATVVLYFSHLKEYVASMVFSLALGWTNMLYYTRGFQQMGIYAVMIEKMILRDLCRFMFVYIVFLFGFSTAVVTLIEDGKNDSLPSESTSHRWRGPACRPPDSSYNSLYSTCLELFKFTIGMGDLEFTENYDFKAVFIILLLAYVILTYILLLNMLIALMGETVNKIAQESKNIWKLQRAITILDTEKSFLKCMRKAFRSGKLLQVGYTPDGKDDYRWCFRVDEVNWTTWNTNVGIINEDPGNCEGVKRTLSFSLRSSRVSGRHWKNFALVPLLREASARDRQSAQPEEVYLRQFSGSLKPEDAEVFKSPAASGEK
Chain of CYP3A4 (P08684 whole entry): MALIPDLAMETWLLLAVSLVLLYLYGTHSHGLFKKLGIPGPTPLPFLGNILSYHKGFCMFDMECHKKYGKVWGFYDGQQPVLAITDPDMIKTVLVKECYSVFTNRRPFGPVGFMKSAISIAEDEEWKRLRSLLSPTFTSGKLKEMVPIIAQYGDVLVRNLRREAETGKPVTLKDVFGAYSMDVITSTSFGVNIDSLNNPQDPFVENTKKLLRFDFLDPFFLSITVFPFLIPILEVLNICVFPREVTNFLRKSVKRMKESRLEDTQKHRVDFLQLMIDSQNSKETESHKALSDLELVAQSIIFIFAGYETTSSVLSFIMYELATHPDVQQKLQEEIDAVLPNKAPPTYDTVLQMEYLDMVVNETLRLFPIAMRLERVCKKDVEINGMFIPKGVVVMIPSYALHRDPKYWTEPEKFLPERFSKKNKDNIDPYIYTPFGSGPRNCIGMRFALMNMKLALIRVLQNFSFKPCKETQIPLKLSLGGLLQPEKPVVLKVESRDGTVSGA
Chain of Transient receptor potential cation channel subfamily V member 1 (Rattus norvegicus, UniProt O35433) (O35433 whole entry): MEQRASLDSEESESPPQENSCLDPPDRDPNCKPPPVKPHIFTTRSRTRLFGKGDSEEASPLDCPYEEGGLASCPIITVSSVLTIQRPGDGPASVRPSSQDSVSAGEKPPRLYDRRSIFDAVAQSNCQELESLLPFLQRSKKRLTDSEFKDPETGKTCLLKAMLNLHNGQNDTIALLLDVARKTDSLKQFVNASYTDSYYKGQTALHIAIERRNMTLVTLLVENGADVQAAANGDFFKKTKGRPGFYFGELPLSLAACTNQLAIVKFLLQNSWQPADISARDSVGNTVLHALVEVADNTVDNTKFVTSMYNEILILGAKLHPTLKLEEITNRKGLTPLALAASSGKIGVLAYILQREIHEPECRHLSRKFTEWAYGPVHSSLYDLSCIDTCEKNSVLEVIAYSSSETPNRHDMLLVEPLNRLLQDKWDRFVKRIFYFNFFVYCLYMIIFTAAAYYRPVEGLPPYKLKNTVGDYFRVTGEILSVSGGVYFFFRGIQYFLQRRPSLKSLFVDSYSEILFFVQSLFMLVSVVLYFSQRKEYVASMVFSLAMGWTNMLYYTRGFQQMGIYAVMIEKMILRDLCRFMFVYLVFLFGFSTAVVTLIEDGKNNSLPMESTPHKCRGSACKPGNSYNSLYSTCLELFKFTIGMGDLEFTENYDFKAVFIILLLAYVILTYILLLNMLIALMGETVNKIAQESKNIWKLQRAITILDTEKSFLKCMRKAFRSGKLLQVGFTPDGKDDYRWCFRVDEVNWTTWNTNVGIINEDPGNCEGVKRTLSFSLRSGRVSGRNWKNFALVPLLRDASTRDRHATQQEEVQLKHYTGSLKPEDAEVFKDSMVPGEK
Chain of Cytochrome P450 3A4 (P08684 whole entry): as the sequence (P08684 whole entry) above

In the case of `O=C(NCc1ccc(C(F)(F)F)nc1N1CCOCC1)Nc1cccc2[nH]ncc12`, the ED50 (Rattus norvegicus [1]) is reported as 33 µmol/kg and the IC50 [2] is reported as 12 nM.

Compound `Cc1ccc(CNC(=O)Nc2cccc3[nH]ncc23)c(N2CCOCC2)n1` has an IC50 [2] of 125 nM.

`O=C(NCc1ccc(C(F)(F)F)cc1CCc1ccccc1)Nc1cccc2[nH]ncc12` showed an ED50 (Rattus norvegicus [1]) of 30 µmol/kg and an IC50 [2] of 8 nM.

For `O=C(NCc1ccc(C(F)(F)F)cc1Oc1ccccc1)Nc1cccc2[nH]ncc12`, the ED50 (Rattus norvegicus [1]) was 22 µmol/kg and the IC50 [2] was 9 nM.

For `O=C(NCc1ccc(C(F)(F)F)nc1N1CCCCC1)Nc1cccc2[nH]ncc12`, the ED50 (Rattus norvegicus [1]) was 30 µmol/kg and the IC50 [2] was 3.5 nM.

For `Cc1ccc(CNC(=O)Nc2cccc3[nH]ncc23)c(N2CCCCC2)n1`, the ED50 (Rattus norvegicus [1]) was 53 µmol/kg and the IC50 [2] was 16 nM.

In the case of `CC(C)(C)CCc1nc(C(F)(F)F)ccc1CNC(=O)Nc1cccc2[nH]ncc12`, the ED50 (Rattus norvegicus [1]) is reported as 100 µmol/kg and the IC50 [2] is reported as 5 nM.

In the case of `COCCCc1cc(C(F)(F)F)ccc1CNC(=O)Nc1cccc2[nH]ncc12`, the IC50 [2] is reported as 8 nM.

`CC(C)(C)COc1nc(C(F)(F)F)ccc1CNC(=O)Nc1cccc2[nH]ncc12` gave a Kp [3] of 0.02, an ED50 (Rattus norvegicus [1]) greater than 100 µmol/kg and an IC50 [2] of 6 nM.

Compound `CCn1ncc2c(NC(=O)NCc3ccc(C(F)(F)F)cc3CCC(C)(C)C)cccc21` has an IC50 [4] of 53 nM.

With `CC(C)n1ncc2c(NC(=O)NCc3ccc(C(F)(F)F)cc3CCC(C)(C)C)cccc21` the IC50 [4] was 69 nM.

`Cn1ncc2c(NC(=O)NCc3ccc(C(F)(F)F)cc3CCC(C)(C)C)cccc21` showed a half-life [5] of 186 min, a T (Rattus norvegicus [6]) of 0.9 °C and an Activity (Rattus norvegicus [7]) of 45%. It also gave a Cmax [8] of 140 ng/mL, a Kp [3] of 0.32 and an Activity (Rattus norvegicus [9]) of 67%. For the same compound, the IC50 [10] was 277 nM, the Vdss (Rattus norvegicus [11]) was 3.4 L/kg and the ED50 (Rattus norvegicus [12]) was 25 µmol/kg. For the same compound, the IC50 [13] was 15 nM, the solubility [14] was less than 0.01 µg/mL and the solubility [15] was greater than 67 µg/mL. It also gave an IC50 [4] of 7 nM, an Activity (Rattus norvegicus [16]) of 20% and a bioavailability [17] of 58%. It also gave a clearance (Rattus norvegicus [18]) of 0.8 L/kg/h, an ED50 (Rattus norvegicus [19]) of 66 µmol/kg and an inhibition at 10 µM (CYP3A4) of 10%.

In the case of `O=C(NCc1ccc(C(F)(F)F)nc1)Nc1cccc2[nH]ncc12`, the ED50 (Rattus norvegicus [1]) is reported as 81 µmol/kg and the IC50 [2] is reported as 184 nM.

`O=C(NCc1ccc(C(F)(F)F)nc1Oc1ccccc1)Nc1cccc2[nH]ncc12` showed an ED50 (Rattus norvegicus [1]) of 30 µmol/kg and an IC50 [2] of 9 nM.

With `COCCOc1nc(C(F)(F)F)ccc1CNC(=O)Nc1cccc2[nH]ncc12` the IC50 [2] was 18 nM.

`COCCCc1nc(C(F)(F)F)ccc1CNC(=O)Nc1cccc2[nH]ncc12` showed an ED50 (Rattus norvegicus [1]) greater than 30 µmol/kg and an IC50 [2] of 12 nM.

For `CC(C)c1cc(C(F)(F)F)ccc1CNC(=O)Nc1cccc2[nH]ncc12`, the ED50 (Rattus norvegicus [1]) was 14 µmol/kg and the IC50 [2] was 9 nM.

Work on `CC(C)(F)CCc1cc(C(F)(F)F)ccc1CNC(=O)Nc1cccc2[nH]ncc12` yielded an ED50 (Rattus norvegicus [1]) of 58 µmol/kg and an IC50 [2] of 6 nM.

In the case of `CC(C)(C)CCc1cc(C(F)(F)F)ccc1CNC(=O)Nc1cccc2[nH]ncc12`, the half-life [5] is reported as 258 min, the Activity [20] is reported as “Non-toxic” and the Kp [3] is reported as 0.45. The solubility [21] was greater than 100 µg/mL, the ED50 (Rattus norvegicus [1]) was 15 µmol/kg and the “inhibition (INH)” value (Cytochrome P450 3A4) was “tde”. It also gave an ED50 (Rattus norvegicus [12]) of 7 µmol/kg, a solubility [14] of 0.42 µg/mL (≈ 1 µM) and a clearance [22] of 20 mL/min/kg. For the same compound, the Vd [23] was 5.4 L/kg, the IC50 [2] was 4.3 nM and the bioavailability [17] was 35%. For the same compound, the ED50 (Rattus norvegicus [19]) was 71 µmol/kg and the inhibition at 10 µM (CYP3A4) was 86%.

Work on `O=C(NCc1ccc(-c2ccccc2)nc1N1CCCCC1)Nc1cccc2[nH]ncc12` yielded an ED50 (Rattus norvegicus [1]) of 37 µmol/kg and an IC50 [2] of 14 nM.

`CC(C)(C)c1ccc2c(c1)CC[C@H]2NC(=O)Nc1cccc2[nH]ncc12` [ABT-102] gave a Kp [3] of 0.32.

Source: ChEMBL document CHEMBL1155508, “Discovery of TRPV1 antagonist ABT-116” (Bioorg Med Chem Lett, 2010)
